Measurements reported in BindingDB's records for PubMed 2867217 (Smith Kline & French Laboratories, 1986).
Several values for one entry are separate records, joined by “and”; a condition that tells them apart may be missing. Identical values can stand only once. Counter-ions that a name gives are not always drawn.

Experiments:
[1] = biological target: T1, Alpha-1D adrenergic receptor (Mus musculus, UniProt P97714)
T1 sequence (P97714 whole entry): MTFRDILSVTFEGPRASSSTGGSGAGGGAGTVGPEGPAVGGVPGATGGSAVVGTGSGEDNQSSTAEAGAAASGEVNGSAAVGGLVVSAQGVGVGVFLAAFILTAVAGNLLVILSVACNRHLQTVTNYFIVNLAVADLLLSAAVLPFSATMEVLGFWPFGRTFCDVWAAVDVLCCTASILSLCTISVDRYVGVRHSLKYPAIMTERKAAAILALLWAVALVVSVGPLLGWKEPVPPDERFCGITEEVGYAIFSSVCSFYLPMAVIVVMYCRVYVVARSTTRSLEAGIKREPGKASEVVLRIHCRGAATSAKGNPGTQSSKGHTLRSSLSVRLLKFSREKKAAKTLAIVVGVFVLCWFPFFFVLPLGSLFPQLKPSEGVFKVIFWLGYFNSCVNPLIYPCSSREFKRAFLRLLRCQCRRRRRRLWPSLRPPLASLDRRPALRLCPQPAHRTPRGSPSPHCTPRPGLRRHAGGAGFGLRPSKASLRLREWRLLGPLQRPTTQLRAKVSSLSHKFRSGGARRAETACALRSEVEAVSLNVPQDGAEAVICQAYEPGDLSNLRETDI

[2] = biological target: T2, Alpha-1A adrenergic receptor (Oryctolagus cuniculus, UniProt O02824)
T2 sequence (O02824 whole entry): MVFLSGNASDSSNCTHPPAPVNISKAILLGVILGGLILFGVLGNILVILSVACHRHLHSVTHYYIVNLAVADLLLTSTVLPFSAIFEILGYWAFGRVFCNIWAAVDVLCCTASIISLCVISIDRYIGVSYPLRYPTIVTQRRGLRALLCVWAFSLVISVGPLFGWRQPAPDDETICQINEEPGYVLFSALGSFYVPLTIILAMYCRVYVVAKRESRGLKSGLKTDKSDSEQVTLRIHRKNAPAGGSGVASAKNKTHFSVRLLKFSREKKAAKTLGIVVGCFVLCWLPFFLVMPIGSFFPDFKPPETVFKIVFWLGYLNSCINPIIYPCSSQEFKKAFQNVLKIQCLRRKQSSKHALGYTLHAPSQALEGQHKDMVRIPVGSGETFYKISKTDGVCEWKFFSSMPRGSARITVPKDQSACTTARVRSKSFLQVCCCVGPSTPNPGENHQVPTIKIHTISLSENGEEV

[3] = biological target: T3, Alpha-1A adrenergic receptor (Canis lupus familiaris, UniProt O77621)
T3 sequence (O77621 whole entry): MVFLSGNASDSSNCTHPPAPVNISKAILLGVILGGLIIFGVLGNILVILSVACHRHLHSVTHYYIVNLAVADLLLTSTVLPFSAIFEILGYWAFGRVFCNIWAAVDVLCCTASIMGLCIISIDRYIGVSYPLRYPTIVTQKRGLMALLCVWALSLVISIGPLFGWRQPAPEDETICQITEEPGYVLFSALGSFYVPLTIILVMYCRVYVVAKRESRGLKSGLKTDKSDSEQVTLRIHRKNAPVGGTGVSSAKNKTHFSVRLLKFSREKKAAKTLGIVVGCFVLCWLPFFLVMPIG

[4] = biological target: T4, Alpha-2A adrenergic receptor (Cavia porcellus, UniProt Q60474)
T4 sequence (Q60474 whole entry): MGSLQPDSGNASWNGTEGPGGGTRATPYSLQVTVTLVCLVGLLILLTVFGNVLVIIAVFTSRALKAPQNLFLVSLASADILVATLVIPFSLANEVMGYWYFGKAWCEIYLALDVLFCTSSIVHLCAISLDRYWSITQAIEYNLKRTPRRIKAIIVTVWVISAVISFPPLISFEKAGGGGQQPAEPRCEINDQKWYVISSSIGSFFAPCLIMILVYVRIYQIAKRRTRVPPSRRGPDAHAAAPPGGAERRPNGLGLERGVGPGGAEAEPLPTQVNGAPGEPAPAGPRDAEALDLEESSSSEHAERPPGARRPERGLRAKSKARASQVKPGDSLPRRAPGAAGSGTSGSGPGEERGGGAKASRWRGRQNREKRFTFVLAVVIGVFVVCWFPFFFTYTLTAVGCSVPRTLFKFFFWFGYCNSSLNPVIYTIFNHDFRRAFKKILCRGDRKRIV

[5] = biological target: T5, Alpha-2B adrenergic receptor (Canis lupus familiaris, UniProt Q2MDQ0)
T5 sequence (Q2MDQ0 whole entry): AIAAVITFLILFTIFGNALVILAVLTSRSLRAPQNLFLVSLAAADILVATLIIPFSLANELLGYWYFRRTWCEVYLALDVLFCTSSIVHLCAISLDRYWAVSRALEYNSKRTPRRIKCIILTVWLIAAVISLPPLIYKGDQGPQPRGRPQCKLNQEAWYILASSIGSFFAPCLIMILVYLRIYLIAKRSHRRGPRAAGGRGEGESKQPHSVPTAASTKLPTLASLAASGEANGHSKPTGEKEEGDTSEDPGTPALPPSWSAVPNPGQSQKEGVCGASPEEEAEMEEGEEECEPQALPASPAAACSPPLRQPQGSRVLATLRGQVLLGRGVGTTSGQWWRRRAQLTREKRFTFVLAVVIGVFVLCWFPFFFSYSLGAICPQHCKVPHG

[6] = biological target: T6, Alpha-2B adrenergic receptor (Oryctolagus cuniculus, UniProt O77830)
T6 sequence (O77830 whole entry): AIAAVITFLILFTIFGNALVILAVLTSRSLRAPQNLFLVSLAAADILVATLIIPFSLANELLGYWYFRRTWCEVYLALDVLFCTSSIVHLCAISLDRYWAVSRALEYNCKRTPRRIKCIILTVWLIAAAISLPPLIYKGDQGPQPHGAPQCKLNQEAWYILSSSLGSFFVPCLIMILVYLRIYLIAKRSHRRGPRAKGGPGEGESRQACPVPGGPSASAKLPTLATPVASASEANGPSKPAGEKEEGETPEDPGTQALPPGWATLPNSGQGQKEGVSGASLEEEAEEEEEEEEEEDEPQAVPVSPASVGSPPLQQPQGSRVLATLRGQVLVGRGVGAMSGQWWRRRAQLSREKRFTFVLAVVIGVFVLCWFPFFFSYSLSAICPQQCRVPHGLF

Ki [6] [nM]	Compound	Ki [1] [nM]	Ki [2]	Ki [3] [nM]	Ki [4] [nM]	Ki [5] [nM]
–	c1ccc2c(c1)OCC(C1=NCCN1)O2 (stereo not given)	12	2300 nM	–	–	–
–	CN1CCc2cccc(Cl)c2CC1 [MLS002172470]	–	900 nM	1100	13	42
–	COC(=O)[C@H]1[C@H]2C[C@H]3c4[nH]c5ccccc5c4CCN3C[C@H]2CC[C@@H]1O [RAUWOLSCINE HYDROCHLORIDE]	–	1800 nM and 4000 nM and 1300 nM	234	–	–
21	COC(=O)[C@@H]1[C@H]2C[C@H]3c4[nH]c5ccccc5c4CCN3C[C@@H]2CC[C@@H]1O [yohimbic acid methyl ester]	–	1100 nM and 275 nM	–	–	–
